Laboratory results taken from US10874743B2, “IRAK degraders and uses thereof” (Kymera Therapeutics, Inc., priority 2017, dated 2020).

Assays:
[1] = tested on: OCI-LY10 cells; assay: OCI-LY-10 CTG cell viability assay (EC50); type: cell-based; conditions: Homo sapiens, 96 h, CellTiter-Glo cell viability, 4 days incubation, top concentration 10 μM, read-out: OCI-LY10 IRAK4 EC50
How it was run: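 OCI-LY10 cells were exposed to a 9-dose, 1:3 series (top 10 μM, 0.2% DMSO) for 4 days at 37 °C. Viability was measured by CellTiter-Glo luminescence, and EC50 came from a three-parameter logistic fit.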

[2] = molecular target: T1, IRAK4 (Homo sapiens, UniProt Q9NWZ3); assay: OCI-LY-10 MSD assay for IRAK4 DC50; type: cell-based; design: endogenous in cells; host or cells: OCI-LY10; conditions: OCI-LY10 cells, 4 hr incubation, concentration required to degrade 50% of protein
T1 sequence (Q9NWZ3 1-460): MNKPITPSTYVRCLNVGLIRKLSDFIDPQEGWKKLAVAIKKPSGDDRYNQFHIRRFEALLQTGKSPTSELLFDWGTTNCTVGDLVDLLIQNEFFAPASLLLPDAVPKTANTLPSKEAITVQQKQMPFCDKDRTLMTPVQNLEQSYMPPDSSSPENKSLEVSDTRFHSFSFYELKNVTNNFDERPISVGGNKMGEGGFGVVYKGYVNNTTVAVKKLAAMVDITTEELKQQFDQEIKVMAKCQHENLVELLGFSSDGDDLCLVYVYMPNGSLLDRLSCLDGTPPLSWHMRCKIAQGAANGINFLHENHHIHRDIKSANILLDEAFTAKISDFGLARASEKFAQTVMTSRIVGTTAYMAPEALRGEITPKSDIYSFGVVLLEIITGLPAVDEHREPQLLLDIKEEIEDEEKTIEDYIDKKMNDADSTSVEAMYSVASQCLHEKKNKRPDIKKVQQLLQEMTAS
How it was run: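 IRAK4 level was quantified by MSD electrochemiluminescence (anti-IRAK4 capture antibody, rabbit anti-IRAK4 detection antibody) in RIPA lysates of OCI-Ly10 cells. Cells had been treated with compound for 4 hr (8-point, 3-fold serial dilution). Remaining protein versus concentration was fitted to a sigmoidal curve to give DC50.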

Row | Compound | EC50 [1] | DC50 [2]
1 | Cn1c(=O)n(C2CCC(=O)NC2=O)c2cccc(CCCN3CCO[C@H](CNCc4ccc(-n5cc(NC(=O)c6coc(-c7ccnc(NCC8CC8)c7)n6)c(C(F)F)n5)cc4)C3)c21 (stereo partly shown) [I-587] | < 0.05 µM | < 0.05 µM
2 | Cn1c(=O)n(C2CCC(=O)NC2=O)c2cccc(CCCN3CCO[C@H](CNCc4ccc(-n5cc(NC(=O)c6coc(-c7ccnc(NCC(F)(F)F)c7)n6)c(C(N)=O)n5)cc4)C3)c21 (stereo partly shown) [I-593] | 0.1 to 0.5 µM | < 0.05 µM
3 | CN(Cc1ccc(-n2cc(NC(=O)c3coc(-c4ccnc(NCC5CC5)c4)n3)c(C(F)F)n2)cc1)C[C@@H]1CN(CCCc2ccc3c(c2)n(C)c(=O)n3C2CCC(=O)NC2=O)CCO1 (stereo partly shown) [I-599] | < 0.05 µM | 0.1 to 0.5 µM
4 | Cn1c(=O)n(C2CCC(=O)NC2=O)c2ccc(CCCN3CCO[C@@H](CNCc4ccc(-n5cc(NC(=O)c6coc(-c7ccnc(NCC(F)(F)F)c7)n6)c(C(F)F)n5)cc4)C3)cc21 (stereo partly shown) [I-614] | 0.1 to 0.5 µM | 0.05 to 0.1 µM
5 | CN[C@@H](C)C(=O)N[C@H](C(=O)N1Cc2cc(OCCOCCOCCOCCOCCOCCNCc3ccc(-n4cc(NC(=O)c5coc(-c6ccnc(NCC7CC7)c6)n5)c(C(F)F)n4)cc3)ccc2C[C@H]1C(=O)N[C@@H]1CCCc2ccccc21)C(C)(C)C [I-680, 2-[2-(Cyclopropylmethylamino)-4-pyridyl]-N-[3-(difluoromethyl)-1-[4-[[2-[2-[2-[2-[2-[2-[[(3S)-2-[(2S)-3,3-dimethyl-2-[[(2S)-2-(methylamino)propanoyl]amino]butanoyl]-3-[[(1R)-tetralin-1-yl]carbamoyl]-3,4-dihydro-1H-isoquinolin-7-yl]oxy]ethoxy]ethoxy]ethoxy]ethoxy]ethoxy]ethylamino]methyl]-phenyl]pyrazol-4-yl]oxazole-4-carboxamide] | > 1 µM | > 1 µM
6 | CN[C@@H](C)C(=O)N[C@H](C(=O)N1Cc2cc(OCCOCCOCCOCCOCCNCc3nn(C)cc3NC(=O)c3coc(-c4ccnc(NCC(F)(F)F)c4)n3)ccc2C[C@H]1C(=O)N[C@@H]1CCCc2ccccc21)C(C)(C)C [I-682] | > 1 µM | > 1 µM
7 | Cn1c(=O)n(C2CCC(=O)NC2=O)c2ccc(CNCCOCCNCc3ccc(-n4cc(NC(=O)c5coc(-c6ccnc(NCC7CC7)c6)n5)c(C(F)F)n4)cc3)cc21 (stereo not shown) [I-684, 2-[2-(cyclopropylmethylamino)-4-pyridyl]-N-[3-(difluoromethyl)-1-[4-[[2-[2-[[1-(2,6-dioxo-3-piperidyl)-3-methyl-2-oxo-benzimidazol-5-yl]methylamino]ethoxy]ethylamino]methyl]phenyl]pyrazol-4-yl]oxazole-4-carboxamide] | < 0.05 µM | < 0.05 µM
8 | Cn1c(=O)n([C@@H]2CCC(=O)NC2=O)c2cccc(CCCOCCOCCNCc3ccc(-n4cc(NC(=O)c5coc(-c6ccnc(NCC(F)(F)F)c6)n5)c(C(N)=O)n4)cc3)c21 [I-689] | 0.5 to 1 µM | < 0.05 µM
9 | Cn1c(=O)n([C@H]2CCC(=O)NC2=O)c2cccc(CCCOCCOCCNCc3ccc(-n4cc(NC(=O)c5coc(-c6ccnc(NCC(F)(F)F)c6)n5)c(C(N)=O)n4)cc3)c21 [I-690, N-[3-carbamoyl-1-[4-[[2-[2-[3-[(1S)-1-(2,6-dioxo-3-piperidyl)-3-methyl-2-oxo-benzimidazol-4-yl]propoxy]ethoxy]ethylamino]methyl]phenyl]pyrazol-4-yl]-2-[2-(2,2,2-trifluoroethylamino)-4-pyridyl]oxazole-4-carboxamide] | > 1 µM | < 0.05 µM

Other lines, results leading:

Row | EC50 [1] | DC50 [2] | Compound
10 | 0.05 to 0.1 µM | < 0.05 µM | O=C1CCC(N2C[C@H](c3cccc(C#CCN4CCO[C@@H](CNCc5ccc(-n6cc(NC(=O)c7coc(-c8ccnc(NCC9CC9)c8)n7)c(C(F)F)n6)cc5)C4)c3)OC2=O)C(=O)N1 (stereo partly shown) [I-584]
11 | < 0.05 µM | < 0.05 µM | O=C1CCC(N2C[C@H](c3ccc(C#CCN4CCO[C@@H](CNCc5ccc(-n6cc(NC(=O)c7coc(-c8ccnc(NCC9CC9)c8)n7)c(C(F)F)n6)cc5)C4)cc3)OC2=O)C(=O)N1 (stereo partly shown) [I-585]
12 | < 0.05 µM | < 0.05 µM | Cn1c(=O)n(C2CCC(=O)NC2=O)c2cccc(CCCN3CCO[C@@H](CNCc4ccc(-n5cc(NC(=O)c6coc(-c7ccnc(NCC8CC8)c7)n6)c(C(F)F)n5)cc4)C3)c21 (stereo partly shown) [I-588]
13 | < 0.05 µM | < 0.05 µM | O=C1CCC(n2c(=O)oc3c(CCCN4CCO[C@@H](CNCc5ccc(-n6cc(NC(=O)c7coc(-c8ccnc(NCC9CC9)c8)n7)c(C(F)F)n6)cc5)C4)cccc32)C(=O)N1 (stereo partly shown) [I-589]
14 | < 0.05 µM | < 0.05 µM | O=C1CCC(n2c(=O)oc3c(CCCN4CCO[C@H](CNCc5ccc(-n6cc(NC(=O)c7coc(-c8ccnc(NCC9CC9)c8)n7)c(C(F)F)n6)cc5)C4)cccc32)C(=O)N1 (stereo partly shown) [I-590]
15 | < 0.05 µM | < 0.05 µM | CN(CC[C@H]1CN(CCCc2ccc3c(c2)n(C)c(=O)n3C2CCC(=O)NC2=O)CCO1)Cc1ccc(-n2cc(NC(=O)c3coc(-c4ccnc(NCC5CC5)c4)n3)c(C(F)F)n2)cc1 (stereo partly shown) [I-592]
16 | < 0.05 µM | < 0.05 µM | Cn1c(=O)n(C2CCC(=O)NC2=O)c2ccc(N3CCN(CCOCCNCc4ccc(-n5cc(NC(=O)c6coc(-c7ccnc(NCC8CC8)c7)n6)c(C(F)F)n5)cc4)CC3)cc21 (stereo not shown) [I-685]
17 | > 1 µM | > 1 µM | Cn1ncc2nc(Nc3cnn(CCOCCOCCNc4cccc5c4C(=O)N(C4CCC(=O)NC4=O)C5=O)c3)nc(NC3CCC(N4CCOCC4)CC3)c21 (stereo not shown) [I-692]
